The experiment addresses T1, Type-1 angiotensin II receptor B (Rattus norvegicus, UniProt P29089).
T1 sequence (P29089 whole entry): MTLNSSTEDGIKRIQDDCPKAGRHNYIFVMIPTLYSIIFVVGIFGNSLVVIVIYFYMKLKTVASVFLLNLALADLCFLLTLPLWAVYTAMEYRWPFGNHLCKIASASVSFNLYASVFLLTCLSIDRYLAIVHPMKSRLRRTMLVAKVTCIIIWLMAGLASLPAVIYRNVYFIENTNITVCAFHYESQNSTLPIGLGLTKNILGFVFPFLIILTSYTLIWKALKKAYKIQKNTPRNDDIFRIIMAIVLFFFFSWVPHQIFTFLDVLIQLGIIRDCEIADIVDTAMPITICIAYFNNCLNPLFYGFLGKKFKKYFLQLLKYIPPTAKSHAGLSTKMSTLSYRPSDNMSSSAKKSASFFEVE
Description: Binding affinity for angiotensin II receptor, type 1 in rat liver membrane using [125I]-Ang II as radioligand, in pH 7.4 Tris-HCl buffer for 2 hr at 25 degree C. It counts as cell membranes.

pKi: −log10 of the molar value. Starred links: 1 amine or outer side, 2 acyl side, 3 side chain; linkers in the order of their positions; H or OH if unused. Non-standard residues stand in square brackets, D forms with d. Residues, ends and D or L forms follow the SMILES beside them. X2 = O=C(c1cc(CN[*:1])cc(Cc2ccc(O)cc2)c1)[*:2]; X1 = O=C(c1cc(Cc2ccc(O)cc2)cc(N[*:1])c1)[*:2]; Phe(4-NH2) = Nc1ccc(C[C@H](N)C(=O)O)cc1

In general, pKi refers to the negative decadic logarithm of the Ki, by convention in mol/L. A high value points to a low Ki.

`CC(C)[C@H](NC(=O)[C@H](CCCN=C(N)N)NC(=O)[C@@H](N)CC(=O)O)C(=O)Nc1cc(Cc2ccc(O)cc2)cc(C(=O)N[C@@H](Cc2c[nH]cn2)C(=O)N2CCC[C@H]2C(=O)N[C@@H](Cc2ccccc2)C(=O)O)c1` (H-DRV[X1]HPF-OH) had a pKi of 7.52.

Take `N=C(N)NCCC[C@H](NC(=O)[C@@H](N)CC(=O)O)C(=O)Nc1cc(Cc2ccc(O)cc2)cc(C(=O)N[C@@H](Cc2cnc[nH]2)C(=O)N2CCC[C@H]2C(=O)N[C@@H](Cc2ccccc2)C(=O)O)c1` (H-DR[X1]HPF-OH): the pKi is less than 5.00.

`CC[C@H](C)[C@H](NC(=O)[C@H](Cc1ccc(O)cc1)NC(=O)[C@@H](NC(=O)[C@H](CCCN=C(N)N)NC(=O)[C@@H](N)CC(=O)O)C(C)C)C(=O)N[C@@H](Cc1ccc(N)cc1)C(=O)N1CCC[C@H]1C(=O)N[C@@H](Cc1ccccc1)C(=O)O` (H-DRVYI[Phe(4-NH2)]PF-OH) gave a pKi of less than 5.00. As for `CC(C)[C@H](NC(=O)[C@H](CCCN=C(N)N)NC(=O)[C@@H](N)CC(=O)O)C(=O)NCc1cc(Cc2ccc(O)cc2)cc(C(=O)N[C@@H](Cc2c[nH]cn2)C(=O)N2CCC[C@H]2C(=O)N[C@@H](Cc2ccccc2)C(=O)O)c1` (H-DRV[X2]HPF-OH), the pKi was less than 5.00. As to `NC(N)=NCCC[C@H](NC(=O)[C@@H](N)CC(=O)O)C(=O)NCc1cc(Cc2ccc(O)cc2)cc(C(=O)N[C@@H](Cc2c[nH]cn2)C(=O)N2CCC[C@H]2C(=O)N[C@@H](Cc2ccccc2)C(=O)O)c1` (H-DR[X2]HPF-OH), the negative-log Ki (pKi) was less than 5.00. `CC[C@H](C)[C@H](NC(=O)c1cc(CNC(=O)[C@H](CCCN=C(N)N)NC(=O)[C@@H](N)CC(=O)O)cc(Cc2ccc(O)cc2)c1)C(=O)N[C@@H](Cc1c[nH]cn1)C(=O)N1CCC[C@H]1C(=O)N[C@@H](Cc1ccccc1)C(=O)O` (H-DR[X2]IHPF-OH) gave a pKi of less than 5.00.

Take `CC[C@H](C)[C@H](NC(=O)[C@H](Cc1ccc(O)cc1)NC(=O)[C@@H](NC(=O)[C@H](CCCNC(=N)N)NC(=O)CNC)C(C)C)C(=O)N[C@@H](Cc1cnc[nH]1)C(=O)N1CCC[C@H]1C(=O)N[C@@H](Cc1ccccc1)C(=O)O`: the pKi is 9.80.

The values above are taken from ChEMBL document CHEMBL1141124 (J Med Chem, 2005).
